pIC50: −log10 of the molar value.

The experiment concerns the target T1, full-length human Mineralocorticoid Receptor (MR) (Homo sapiens, UniProt P08235).
T1 construct: host or cells: PathHunter CHO-K1 cells
T1 sequence (P08235 1-984): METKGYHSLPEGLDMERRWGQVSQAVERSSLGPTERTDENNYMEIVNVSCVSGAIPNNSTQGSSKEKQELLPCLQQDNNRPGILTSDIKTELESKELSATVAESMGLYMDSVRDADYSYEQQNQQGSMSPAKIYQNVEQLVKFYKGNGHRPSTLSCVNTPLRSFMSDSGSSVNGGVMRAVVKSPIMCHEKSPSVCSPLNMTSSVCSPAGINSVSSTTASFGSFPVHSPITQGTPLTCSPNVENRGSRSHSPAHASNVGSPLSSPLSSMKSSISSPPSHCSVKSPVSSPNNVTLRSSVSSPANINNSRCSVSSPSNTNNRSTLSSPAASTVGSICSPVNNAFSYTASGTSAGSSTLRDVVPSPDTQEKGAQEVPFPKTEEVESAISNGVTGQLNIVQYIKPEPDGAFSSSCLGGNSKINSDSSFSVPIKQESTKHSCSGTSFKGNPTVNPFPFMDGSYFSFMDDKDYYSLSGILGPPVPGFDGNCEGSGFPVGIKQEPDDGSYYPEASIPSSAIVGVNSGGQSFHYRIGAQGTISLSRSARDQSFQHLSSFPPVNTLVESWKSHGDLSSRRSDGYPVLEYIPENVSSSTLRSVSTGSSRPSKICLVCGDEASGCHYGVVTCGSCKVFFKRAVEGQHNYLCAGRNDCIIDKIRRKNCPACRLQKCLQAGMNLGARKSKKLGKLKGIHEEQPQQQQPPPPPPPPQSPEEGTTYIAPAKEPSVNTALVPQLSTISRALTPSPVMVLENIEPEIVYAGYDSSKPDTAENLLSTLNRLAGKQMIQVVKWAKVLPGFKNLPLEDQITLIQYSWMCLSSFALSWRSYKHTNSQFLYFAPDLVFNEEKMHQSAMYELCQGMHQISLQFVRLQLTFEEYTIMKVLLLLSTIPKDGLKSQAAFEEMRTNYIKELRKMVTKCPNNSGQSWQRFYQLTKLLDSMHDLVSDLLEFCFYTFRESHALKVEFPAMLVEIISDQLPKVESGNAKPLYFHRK
Briefly: human MR NH Pro assay (PathHunter Protein:Protein interaction assay), MR antagonist activity. It counts as cell-based. Conditions: PathHunter CHO-K1 cells overexpressing human MR; aldosterone about 0.3 nM; 6 hours at 37° C.; luminescence; read-out: Primary Assay IP rating (IP = inflection point for a given dose-response titration curve). From the text:
The activity of the compounds of the present invention regarding mineralocorticoid receptor antagonism can be evaluated using the following assay.
Assessment of MR Potency in HMR NH Pro Assay
The human MR NH Pro assay is a commercially available PathHunter™ Protein:Protein interaction assay (DiscoveRx; http://www.discoverx.com/nhrs/prod-nhrs.php) that measures the ability of compounds to antagonize full-length human Mineralocorticoid Receptor (MR) binding to a coactivator peptide.
6. Test compounds are titrated starting at 4.4 mM, 10-point titration in 1:3 dilution.
3. Add 5 μL 6× agonist (final aldosterone concentration should be about 0.3 nM to about 1.0 nM) to all wells (using the PlateMate Plus.)
• (ThermoFisher) (except those wells in columns 23 and 24) 4. Add 5 uL of assay media to all wells in column 23 and 24. 5. Incubate 6 hrs at 37° C., 5% CO2. 6. Add 15 uL 3× DiscoveRx detection reagent to each well. 7. Incubate 1 hour at room temperature (keep plates stored in the dark). 8. Read plates on Envision (PerkinElmer) luminesence plate reader and analyze using ADA.
For the compound `CCC(CCOC)(c1ccc(Cl)cc1)n1ccc2c(NS(C)(=O)=O)cccc21` (stereo not shown) [Compound 165, N-(1-(3-(4-Chlorophenyl)-1-methoxypentan-3-yl)-1H-indol-4-yl)methanesulfonamide], the pIC50 was > 7.00.

With `CCC(CCC#N)(c1ccc(Cl)cc1)n1ncc2c(NS(C)(=O)=O)cccc21` (single isomer, unassigned) [Compound 137, N-(1-(3-(4-chlorophenyl)-1-cyanopentan-3-yl)-1H-indazol-4-yl)methanesulfonamide], the pIC50 was 6.30 to 7.00.

`CCC(C(=O)OC)(c1ccc(F)cc1Cl)n1ccc2c(NS(C)(=O)=O)cccc21` (stereo not shown) [Compound 31, Methyl 2-(2-chloro-4-fluorophenyl)-2-{4-[(methylsulfonyl)amino]-1H-indol-1-yl}butanoate]: the pIC50 was 6.30 to 7.00.

Turning to `CC[C@@](c1ccc(Cl)cc1)(c1nc(-c2ccccc2)n[nH]1)n1ccc2c(NS(C)(=O)=O)cccc21` [Compound 64, (R)—N-{1-[1-(4-chlorophenyl)-1-(3-phenyl-1H-1,2,4-triazol-5-yl)propyl]-1H-indol-4-yl}methanesulfonamide], the pIC50 was 5.30 to 6.30.

`CCC(c1ccc(C(F)(F)F)cc1)(n1ncc2c(NS(C)(=O)=O)cccc21)C(C)(C)O` (single isomer, unassigned) [Compound 93, N-(1-(2-hydroxy-2-methyl-3-(4-(trifluoromethyl)phenyl)pentan-3-yl)-1H-indazol-4-yl)methane sulfonamide]: the pIC50 is > 7.00.

On to `COC(=O)C(c1ccc(F)cc1Cl)n1ccc2cccc(F)c21` (stereo not shown) [Compound 15, methyl (2-chloro-4-fluorophenyl)(7-fluoro-1H-indol-1-yl)acetate], for which the pIC50 is 5.30 to 6.30.

As to `CCC(c1ccc(Cl)cc1)(C(C)O)n1ccc2c(NS(C)(=O)=O)cccc21` (single isomer, unassigned) [Compound 109, N-(1-(3-(4-chlorophenyl)-2-hydroxypentan-3-yl)-1H-indol-4-yl)methanesulfonamide], the pIC50 was > 7.00.

For the compound `CCC(c1ccc(Cl)cc1)(C(C)O)n1ncc2c(NS(C)(=O)=O)cccc21` (single isomer, unassigned) [Compound 106], the pIC50 is > 7.00.

For `CCC(CCC#N)(c1ccc(Cl)cc1)n1ccc2c(NS(C)(=O)=O)cc(F)cc21` (single isomer, unassigned) [Compound 142, N-(1-(3-(4-chlorophenyl)-1-cyanopentan-3-yl)-6-fluoro-1H-indol-4-yl)methanesulfonamide], the pIC50 is > 7.00.

With `CCC(CC)(c1ccc(Cl)cc1)n1ccc2c(NS(C)(=O)=O)cccc21` [Compound 174, N-(1-(3-(4-chlorophenyl)pentan-3-yl)-1H-indol-4-yl)methanesulfonamide], the pIC50 is 6.30 to 7.00.

As for `CCC(CCC#N)(c1ccc(OC)cc1)n1ccc2c(NS(C)(=O)=O)cccc21` (stereo not shown) [Compound 139, N-(1-(1-cyano-3-(4-methoxyphenyl)pentan-3-yl)-1H-indol-4-yl)methanesulfonamide], the pIC50 was > 7.00.

“N-(6-fluoro-1-(2-hydroxy-3-(4-(trfluoromethyl)phenyl)pentan-3-yl)-1H-indazol-4-yl)methanesulfonamide [Compound 112]”: the pIC50 was > 7.00.

Turning to `CCC(C(=O)NCCc1ccccc1)(c1ccc(Cl)cc1)n1ccc2c(NS(C)(=O)=O)cccc21` (stereo not shown) [Compound 50, 2-(4-chlorophenyl)-2-{4-[(methylsulfonyl)amino]-1H-indol-1-yl}-N-(2-phenylethyl)butanamide], the pIC50 was 5.30 to 6.30.

On to `CC[C@@](c1ccc(Cl)cc1)(c1nnc(C2CC2)o1)n1ccc2c(NS(C)(=O)=O)cccc21` [Compound 67, (R)—N-{1-[1-(4-chlorophenyl)-1-(5-cyclopropyl-1,3,4-oxadiazol-2-yl)propyl]-1H-indol-4-yl}methanesulfonamide], for which the pIC50 was 6.30 to 7.00.

For the compound `CCC(CO)(c1ccc(C(F)(F)F)cc1)n1ncc2c(NS(C)(=O)=O)cccc21` (stereo not shown) [Compound 89, N-(1-(1-hydroxy-2-(4-(trifluoromethyl)phenyl)butan-2-yl)-1H-indazol-4-yl)methanesulfonamide], the pIC50 is 6.30 to 7.00.

Take `COC(=O)CC(C(=O)OC)(c1ccc(Cl)cc1)n1ccc2c(NS(C)(=O)=O)cccc21` (stereo not shown) [Compound 35, Dimethyl 2-(4-chlorophenyl)-2-{4-[(methylsulfonyl)amino]-1H-indol-1-yl}butanedioate]: the pIC50 was > 7.00.

Regarding `CCC(c1ccc(Cl)cc1)(C(O)COC)n1ccc2c(NS(C)(=O)=O)cccc21` (stereo not shown) [Compound 173, N-(1-(3-(4-chlorophenyl)-2-hydroxy-1-methoxypentan-3-yl)-1H-indol-4-yl)methanesulfonamide], the pIC50 was 6.30 to 7.00.

As to `CCC(CC#N)(c1ccc(C(F)(F)F)cc1)n1ccc2c(NS(C)(=O)=O)cccc21` (stereo not shown) [Compound 126, N-(1-(1-cyano-2-(4-(trifluoromethyl)phenyl)butan-2-yl)-1H-indol-4-yl)methanesulfonamide], the pIC50 is > 7.00.

Consider `CCC(C(C)=O)(c1ccc(C(F)(F)F)cc1)n1ncc2c(NS(C)(=O)=O)cccc21` (single isomer, unassigned) [Compound 104, N-(1-(2-oxo-3-(4-(trifluoromethyl)phenyl)pentan-3-yl)-1H-indazol-4-yl)methanesulfonamide], for which the pIC50 is 6.30 to 7.00.

Regarding `CCC(c1ccc(Cl)cc1)(C1CC1C#N)n1ncc2c(NS(C)(=O)=O)cccc21` (stereo not shown) [Compound 120, N-(1-(1-(4-chlorophenyl)-1-(2-cyanocyclopropyl)propyl)-1H-indazol-4-yl)methanesulfonamide], the pIC50 was > 7.00.

On to `CCC(C(=O)NCCF)(c1ccc(Cl)cc1)n1ccc2c(NS(C)(=O)=O)cccc21` (stereo not shown) [Compound 49, 2-(4-chlorophenyl)-N-(2-fluoroethyl)-2-{4-[(methylsulfonyl)amino]-1H-indol-1-yl}butanamide], for which the pIC50 is 6.30 to 7.00.

On to `CCC(CC(F)(F)F)(c1ccc(Cl)cc1)n1ncc2c(NS(C)(=O)=O)cccc21` (stereo not shown) [Compound 159, N-(1-(3-(4-chlorophenyl)-1,1,1-trifluoropentan-3-yl)-1H-indazol-4-yl)methanesulfonamide], for which the pIC50 was > 7.00.

Regarding `CC[C@@](c1ccc(Cl)cc1)(c1nnc(C)[nH]1)n1ccc2c(NS(C)(=O)=O)cccc21` [Compound 65, (R)—N-{1-[1-(4-chlorophenyl)-1-(5-methyl-4H-1,2,4-triazol-3-yl)propyl]-1H-indol-4-yl}methanesulfonamide], the pIC50 was 6.30 to 7.00.

In the case of `CCC(c1ccc(Cl)cc1)(c1nnc(-c2cc(F)cc(F)c2)o1)n1ccc2c(NS(C)(=O)=O)cccc21` (stereo not shown) [Compound 75, N-(1-{1-(4-chlorophenyl)-1-[5-(3,5-difluorophenyl)-1,3,4-oxadiazol-2-yl]propyl}-1H-indol-4-yl)methanesulfonamide], the pIC50 was 5.30 to 6.30.

Regarding `COC(=O)C(c1ccc(F)cc1Cl)n1ccc2c([N+](=O)[O-])cccc21` (stereo not shown) [Compound 2, methyl (2-chloro-4-fluorophenyl)(4-nitro-1H-indol-1-yl)acetate], the pIC50 is 6.30 to 7.00.

On to `CCC(c1ccc(Cl)cc1)(C(C)O)n1ccc2c(NS(C)(=O)=O)cc(F)cc21` (single isomer, unassigned) [Compound 111, N-(1-(3-(4-chlorophenyl)-2-hydroxypentan-3-yl)-6-fluoro-1H-indol-4-yl)methanesulfonamide], for which the pIC50 was > 7.00.

Turning to `CCC(CC#N)(c1ccc(Cl)cc1)n1ccc2c(NS(C)(=O)=O)cc(F)cc21` (single isomer, unassigned) [Compound 125, N-(1-(2-(4-chlorophenyl)-1-cyanobutan-2-yl)-6-fluoro-1H-indol-4-yl)methanesulfonamide], the pIC50 is > 7.00.

As to `CCC(C(=O)OC(C)(C)C)(c1ccc(Cl)cc1)n1ccc2c(NS(C)(=O)=O)cccc21` (stereo not shown) [Compound 26, tert-Butyl 2-(4-chlorophenyl)-2-{4-[(methylsulfonyl)amino]-1H-indol-1-yl}butanoate], the pIC50 is 6.30 to 7.00.

The values above are taken from patent US8933113B2 (Merck Sharp & Dohme Corp., priority 2011, dated 2015).
